Drawing on ChEMBL document CHEMBL5625222, “Design, synthesis, and biological evaluation of 1,6-naphthyridine-2-one derivatives as novel FGFR4 inhibitors for the treatment of colorectal cancer” (Eur J Med Chem, 2023), this text covers IC50, inhibition in vivo and Activity for six compounds.

SMILES strings stand for the structures. Active and inactive are the calls of the source. No cut-off for these calls is given here.

A short description of data set [1]: Antiproliferative activity against human Intestinal epithelial cell assessed as inhibition of cell growth incubated for 48 hrs by MTT assay. As to conditions: human intestinal epithelial cells. Type of data set: toxicity, cell-based. On the technique in general: Tetrazolium dyes change colour on reduction, which living cells bring about.
For data set [2], the system named is HCT-116. Briefly: cells. As to conditions: Homo sapiens, HCT-116, 48 h.
Description: Antiproliferative activity against human HCT-116 cells assessed as inhibition of cell growth incubated for 48 hrs by MTT assay
Data set [3] deals with SW480. As to the kind of experiment: cells. As to conditions: Homo sapiens, SW480, 48 h.
Description: Antiproliferative activity against human SW480 cells assessed as inhibition of cell growth incubated for 48 hrs by MTT assay
Data set [4] concerns RKO. As to the kind of experiment: cells. As to conditions: Homo sapiens, 48 h.
Description: Antiproliferative activity against human RKO cells assessed as inhibition of cell growth incubated for 48 hrs by MTT assay
In data set [5] the test system is HCT-116. Briefly: Antitumor activity against human HCT-116 cells xenografted in BALB/c mouse assessed as tumor growth inhibition at 10 mg/kg,po administrated for 2 weeks relative to control. Type of data set: functional. Particulars: HCT-116, 336 h, read-out: TGI.
For data set [6], the system named is HCT-116. Briefly: Antitumor activity against human HCT-116 cells xenografted in BALB/c mouse assessed as change in cell morphology at 10 mg/kg,po administrated for 2 weeks by hematoxylin and eosin staining based analysis. Type of data set: functional, organism-based. For orientation: A xenograft is tissue or cells of one species grown in another, often human tumour cells in immunodeficient mice.

Data set [7] deals with HCT-116. Briefly: Antitumor activity against human HCT-116 cells xenografted in BALB/c mouse assessed as chromatin condensation at 10 mg/kg,po administrated for 2 weeks by hematoxylin and eosin staining based analysis. Type of data set: functional, organism-based.
Data set [8] in a line: Toxicity in BALB/c mouse xenografted with human HCT-116 cells assessed as histopathological change in kidney at 10 mg/kg,po administrated for 2 weeks by hematoxylin and eosin staining based analysis. Type of data set: organism-based. Particulars: in vivo, 336 h.
Data set [9] is described as follows: Toxicity in BALB/c mouse xenografted with human HCT-116 cells assessed as increase in serum AST level at 10 mg/kg,po administrated for 2 weeks. Type of data set: organism-based. As to conditions: in vivo, 336 h.
In data set [10] the test system is BaF3. Briefly: Antiproliferative activity against mouse BaF3 transfected with FGFR4 assessed as inhibition of cell growth incubated for 72 hrs by CCK-8 assay. As to conditions: BaF3, 72 h. Type of data set: toxicity, cell-based.

On to `COc1cc(OC)cc(-c2cc3cnc(Nc4c(C)cccc4N4CCOCC4)cc3n(CCCO)c2=O)c1`, for which, in [1], the IC50 at 48 h stood at 19.5 µM. For the same compound, the IC50 is 11.9 µM in data set [2], 22.8 µM in data set [3] and 9.25 µM in data set [4].
The corresponding values for `COc1cc(OC)c(Cl)c(-c2cc3cnc(Nc4c(C)cccc4N4CCCCC4)cc3n(CCCN3CCCCC3)c2=O)c1Cl` are 25.1 µM, 9.37 µM, 10.3 µM and 11.2 µM.
The corresponding values for `C=CC(=O)NCCCn1c(=O)c(-c2cc(OC)cc(OC)c2)cc2cnc(Nc3c(C)cccc3N3CCN(C)CC3)cc21` are 21.3 µM, 10.8 µM, 12.7 µM and 11.5 µM.
For the compound `CNC(=O)c1c(C)oc2cc(Oc3ncnc4cc(OC)c(OC)cc34)ccc12` [FRUQUINTINIB], the inhibition in vivo at 10 mg/kg in data set [5] came to 63.7%. Also, the outcome in data set [6] and in [7] was Active. Moreover, the Activity result in data set [8] and in data set [9] was “Toxic” throughout.
For `C=CC(=O)Nc1cccc(C)c1Nc1cc2c(cn1)cc(-c1c(Cl)c(OC)cc(OC)c1Cl)c(=O)n2CCCO`, in [1], the IC50 at 48 h was found to be 24 µM. Further, the IC50 in data set [2] is 7.21 µM; in [3], 12.8 µM; in [4] it was 9.32 µM.
With `C=CC(=O)Nc1cccc(C)c1Nc1ncc2cc(-c3c(Cl)c(OC)cc(OC)c3Cl)ccc2n1`, the IC50 at 48 h in data set [1] amounted to 18.4 µM. Further, the half-maximal inhibitory concentration (IC50) in [10] came out at 0.00512 µM; in data set [2] it was 8.89 µM; in data set [3], 12.7 µM; in [4], 19.7 µM.

For orientation: IC50 means the midpoint of a concentration-inhibition curve.
